From ChEMBL document CHEMBL1201862, “PubChem BioAssay data set” (2004)
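48-hour exposure; five concentrations; linearly interpolated endpoints. GI50 is the concentration that inhibits growth by half.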 The source made the active and inactive calls. No stated cut-off is given here; in the data, active = GI50 up to about 1.1 µM and inactive = higher.

What was measured:
Test in all cases: NCI anticancer screen, dose series, 48 h
786-0 = tested on: 786-0
A498 = tested on: A498
A549 = tested on: A549
BT-549 = tested on: BT-549
CAKI-1 = tested on: CAKI-1
CCRF-CEM = tested on: CCRF-CEM
COLO 205 = tested on: COLO 205
DU-145 = tested on: DU-145
EKVX = tested on: EKVX
HCC 2998 = tested on: HCC 2998
HCT-116 = tested on: HCT-116
HCT-15 = tested on: HCT-15
HL-60 = tested on: HL-60
HOP-62 = tested on: HOP-62
HOP-92 = tested on: HOP-92
HT-29 = tested on: HT-29
Hs-578T = tested on: Hs-578T
IGROV-1 = tested on: IGROV-1
K562 = tested on: K562
KM12 = tested on: KM12
LOX IMVI = tested on: LOX IMVI
M14 = tested on: M14
MCF7 = tested on: MCF7
MDA-MB-231 = tested on: MDA-MB-231
MDA-MB-435 = tested on: MDA-MB-435
MDA-N = tested on: MDA-N
MOLT-4 = tested on: MOLT-4
Malme-3M = tested on: Malme-3M
NCI-H226 = tested on: NCI-H226
NCI-H23 = tested on: NCI-H23
NCI-H460 = tested on: NCI-H460
NCI-H522 = tested on: NCI-H522
NCI/ADR-RES = tested on: NCI/ADR-RES
OVCAR-3 = tested on: OVCAR-3
OVCAR-4 = tested on: OVCAR-4
OVCAR-5 = tested on: OVCAR-5
OVCAR-8 = tested on: OVCAR-8
PC-3 = tested on: PC-3
RPMI-8226 = tested on: RPMI-8226
RXF 393 = tested on: RXF 393
SF-268 = tested on: SF-268
SF-295 = tested on: SF-295
SK-MEL-28 = tested on: SK-MEL-28
SK-MEL-2 = tested on: SK-MEL-2
SK-MEL-5 = tested on: SK-MEL-5
SK-OV-3 = tested on: SK-OV-3
SN12C = tested on: SN12C
SNB-19 = tested on: SNB-19
SNB-75 = tested on: SNB-75
SR = tested on: SR
SW-620 = tested on: SW-620
T47D = tested on: T47D
U-251 = tested on: U-251
UACC-257 = tested on: UACC-257
UACC-62 = tested on: UACC-62
UO-31 = tested on: UO-31
ACHN = tested on: ACHN
SF-539 = tested on: SF-539
TK-10 = tested on: TK-10

COC1C=C(NCC2(CO)CCC2)N=C(N)N1 (centres undefined)
GI50 (786-0): > 100 µM (inactive)
GI50 (A498): 95.1 µM (inactive)
GI50 (A549): > 100 µM (inactive)
GI50 (BT-549): > 100 µM (inactive)
GI50 (CAKI-1): > 100 µM (inactive)
GI50 (CCRF-CEM): > 100 µM (inactive)
GI50 (COLO 205): > 100 µM (inactive)
GI50 (DU-145): > 100 µM (inactive)
GI50 (EKVX): > 100 µM (inactive)
GI50 (HCC 2998): > 100 µM (inactive)
GI50 (HCT-116): > 100 µM (inactive)
GI50 (HCT-15): > 100 µM
GI50 (HL-60): > 100 µM (inactive)
GI50 (HOP-62): > 100 µM (inactive)
GI50 (HOP-92): > 100 µM (inactive)
GI50 (HT-29): > 100 µM (inactive)
GI50 (Hs-578T): > 100 µM (inactive)
GI50 (IGROV-1): > 100 µM (inactive)
GI50 (K562): > 100 µM (inactive)
GI50 (KM12): > 100 µM (inactive)
GI50 (LOX IMVI): > 100 µM (inactive)
GI50 (M14): > 100 µM (inactive)
GI50 (MCF7): 95.1 µM (inactive)
GI50 (MDA-MB-231): 56.6 µM (inactive)
GI50 (MDA-MB-435): > 100 µM (inactive)
GI50 (MDA-N): > 100 µM (inactive)
GI50 (MOLT-4): > 100 µM (inactive)
GI50 (Malme-3M): > 100 µM (inactive)
GI50 (NCI-H226): > 100 µM (inactive)
GI50 (NCI-H23): 24.8 µM (inactive)
GI50 (NCI-H460): > 100 µM (inactive)
GI50 (NCI-H522): > 100 µM (inactive)
GI50 (NCI/ADR-RES): > 100 µM (inactive)
GI50 (OVCAR-3): > 100 µM (inactive)
GI50 (OVCAR-4): > 100 µM (inactive)
GI50 (OVCAR-5): > 100 µM (inactive)
GI50 (OVCAR-8): > 100 µM (inactive)
GI50 (PC-3): > 100 µM (inactive)
GI50 (RPMI-8226): > 100 µM (inactive)
GI50 (RXF 393): > 100 µM (inactive)
GI50 (SF-268): > 100 µM (inactive)
GI50 (SF-295): > 100 µM (inactive)
GI50 (SK-MEL-28): > 100 µM (inactive)
GI50 (SK-MEL-2): > 100 µM (inactive)
GI50 (SK-MEL-5): > 100 µM (inactive)
GI50 (SK-OV-3): > 100 µM (inactive)
GI50 (SN12C): > 100 µM (inactive)
GI50 (SNB-19): > 100 µM (inactive)
GI50 (SNB-75): > 100 µM (inactive)
GI50 (SR): > 100 µM (inactive)
GI50 (SW-620): > 100 µM (inactive)
GI50 (T47D): > 100 µM (inactive)
GI50 (U-251): > 100 µM (inactive)
GI50 (UACC-257): > 100 µM (inactive)
GI50 (UACC-62): > 100 µM (inactive)
GI50 (UO-31): > 100 µM (inactive)

Cc1c(C2=C(Br)C(=O)N(C)C2=O)c(=O)n(C)c(=O)n1C
GI50 (786-0): 17.5 µM (inactive)
GI50 (A498): 29.4 µM (inactive)
GI50 (A549): > 100 µM (inactive)
GI50 (ACHN): 26.7 µM (inactive)
GI50 (BT-549): 24.3 µM (inactive)
GI50 (CAKI-1): 19 µM (inactive)
GI50 (CCRF-CEM): 12.2 µM (inactive)
GI50 (COLO 205): 15.3 µM (inactive)
GI50 (DU-145): 28 µM (inactive)
GI50 (EKVX): 21.6 µM (inactive)
GI50 (HCC 2998): 22.2 µM (inactive)
GI50 (HCT-116): 20.5 µM (inactive)
GI50 (HCT-15): 19.4 µM
GI50 (HL-60): 17.1 µM (inactive)
GI50 (HOP-62): > 100 µM (inactive)
GI50 (HOP-92): 17.7 µM (inactive)
GI50 (HT-29): 20.3 µM (inactive)
GI50 (Hs-578T): > 100 µM (inactive)
GI50 (IGROV-1): 18 µM (inactive)
GI50 (K562): 21.3 µM (inactive)
GI50 (KM12): > 100 µM (inactive)
GI50 (LOX IMVI): 17.1 µM (inactive)
GI50 (M14): 35.1 µM (inactive)
GI50 (MCF7): 20.2 µM (inactive)
GI50 (MDA-MB-231): 25.2 µM (inactive)
GI50 (MDA-MB-435): 24.9 µM (inactive)
GI50 (MDA-N): 28.1 µM (inactive)
GI50 (MOLT-4): 15.8 µM (inactive)
GI50 (NCI-H226): > 100 µM (inactive)
GI50 (NCI-H23): 20.7 µM (inactive)
GI50 (NCI-H460): 45.6 µM (inactive)
GI50 (NCI-H522): 13.6 µM (inactive)
GI50 (NCI/ADR-RES): 27.8 µM (inactive)
GI50 (OVCAR-3): 37.2 µM (inactive)
GI50 (OVCAR-4): 37.7 µM (inactive)
GI50 (OVCAR-5): 61.8 µM (inactive)
GI50 (OVCAR-8): 29.6 µM (inactive)
GI50 (PC-3): 23.6 µM (inactive)
GI50 (RPMI-8226): 15.1 µM (inactive)
GI50 (RXF 393): 14.3 µM (inactive)
GI50 (SF-268): 43.5 µM (inactive)
GI50 (SF-295): > 100 µM (inactive)
GI50 (SF-539): 14.9 µM (inactive)
GI50 (SK-MEL-28): 39.4 µM (inactive)
GI50 (SK-MEL-2): 16.1 µM (inactive)
GI50 (SK-MEL-5): 22 µM (inactive)
GI50 (SK-OV-3): > 100 µM (inactive)
GI50 (SN12C): 95.1 µM (inactive)
GI50 (SNB-19): > 100 µM (inactive)
GI50 (SNB-75): > 100 µM (inactive)
GI50 (SR): 23.1 µM (inactive)
GI50 (SW-620): 31.4 µM (inactive)
GI50 (T47D): 19.8 µM (inactive)
GI50 (TK-10): 17.4 µM (inactive)
GI50 (U-251): 63.1 µM (inactive)
GI50 (UACC-257): 17.4 µM (inactive)
GI50 (UACC-62): 34.4 µM (inactive)
GI50 (UO-31): 18.5 µM (inactive)
